Test results from ChEMBL document CHEMBL2203181, “Microwave-assisted synthesis, molecular docking and antitubercular activity of 1,2,3,4-tetrahydropyrimidine-5-carbonitrile derivatives” (2012).

Columns and labels:
Type in all cases: functional
Design in all cases: scale not given: the % may be the effect or the level left
[1] = test system: Mycobacterium tuberculosis; assay: Antitubercular activity against streptomycin, isoniazid, rifampicin,ethambutol-resistant Mycobacterium tuberculosis clinical isolate assessed as reduction in RLU at 100 ug/mL after 72 hrs by luciferase reporter phage assay
[2] = test system: Mycobacterium tuberculosis; assay: Antitubercular activity against streptomycin, isoniazid, rifampicin,ethambutol-resistant Mycobacterium tuberculosis clinical isolate assessed as reduction in RLU at 500 ug/mL after 72 hrs by luciferase reporter phage assay
[3] = test system: Mycobacterium tuberculosis; assay: Antitubercular activity against streptomycin, isoniazid, rifampicin,ethambutol-resistant Mycobacterium tuberculosis clinical isolate assessed as reduction in RLU at 0.5 ug/mL after 72 hrs by luciferase reporter phage assay
[4] = test system: Mycobacterium tuberculosis; assay: Antitubercular activity against streptomycin, isoniazid, rifampicin,ethambutol-resistant Mycobacterium tuberculosis clinical isolate assessed as reduction in RLU at 2 ug/mL after 72 hrs by luciferase reporter phage assay

Compound	Activity [1]	Activity [2]	Activity [3]	Activity [4]
N#Cc1c(-c2ccc(F)cc2)[nH]c(=O)[nH]c1=O	38.38%	47.86%		
N#Cc1c(-c2cccc(Cl)c2)[nH]c(=O)[nH]c1=O	50.1%	52.77%		
COc1ccc(-c2[nH]c(=O)[nH]c(=O)c2C#N)cc1O	25.47%	33.49%		
N#Cc1c(-c2ccc(Cl)cc2)[nH]c(=S)[nH]c1=O	61.35%	66.65%		
N#Cc1c(-c2ccc(Br)cc2)[nH]c(=S)[nH]c1=O	38.03%	74.91%		
NNC(=O)c1ccncc1 [ISONIAZID]			89.6%	
CO[C@H]1/C=C/O[C@@]2(C)Oc3c(C)c(O)c4c(O)c(c(/C=N/N5CCN(C)CC5)c(O)c4c3C2=O)NC(=O)/C(C)=C\C=C\[C@H](C)[C@H](O)[C@@H](C)[C@@H](O)[C@@H](C)[C@H](OC(C)=O)[C@@H]1C [RIFAMPIN]				29.19%
